≈ marks a conversion by molar mass, not a printed value. Where “and” joins values, the source holds several entries; their conditions need not be identical. Equal values may be shown once. Read-outs that look alike come from different tables or passages of the source.
Legend:
[1] = system: ASPC-1 pancreatic carcinoma cells; test: MTT proliferation/survival assay, 72 hours incubation; format: cell-based; conditions: Homo sapiens, ASPC1, ASPC-1, MTT assay
Experimental: (§1) Controls were exposed to 0.1% v/v DMSO. Proliferation and survival of the pancreatic cells were assessed by MTT assay, a standard colorimetric assay used to measure cell survival and proliferation (Mosman, 1983). MTT (3-[4,5-cimethylthiazol-2-yl]-2,5-diphenyl tetrazolium bromide) is cleaved by living cells to yield a dark blue formazan product. The color is quantitated by spectrophotometer and reflects cellular proliferation and survival. […] The control for each assay was exposed to 0.1% v/v DMSO.
(§2) MTT proliferation/survival assay was performed after 72 hours of incubation.
(§3) FIGS. 5-10 show graphs of the results of the assays using Bxpc-3, Capan-1, Capan-2, HS766-1 and ASPC-1 cell lines, respectively. […] The MTT assay was performed after pancreatic cells were exposed for 72 hours to each compound at concentrations ranging from 0 to 5 μg/ml.

[2] = system: Bxpc-3 pancreatic carcinoma cells; test: as above; format: cell-based; conditions: Homo sapiens
Experimental: as §1, §2, §3

[3] = system: Capan-1 pancreatic carcinoma cells; test: as above; format: cell-based; conditions: Homo sapiens
Experimental: as §1, §2, §3

[4] = system: Capan-2 pancreatic carcinoma cells; test: as above; format: cell-based; conditions: Homo sapiens, Capan-2, 72 h, CAPAN-2, MTT assay
Experimental: as §1, §2, §3

[5] = system: HS766-T pancreatic carcinoma cells; test: as above; format: cell-based; conditions: Hs766T
Experimental: as §1, §2, §3

[6] = system: pancreatic Bxpc-3, Capan-1, Capan-2, HS766-T and ASPC-1 cells; test: MTT proliferation/survival assay, statements on all five pancreatic lines; format: cell-based; conditions: seventy-two hours of exposure
Experimental: as §1, §2, §3

[7] = system: pancreatic BxPC-3 or HS766-T cells; test: Apoptosis assay, Annexin-V/Proopidium iodide staining (FACS analysis); format: cell-based; conditions: concentrations equal to IC50 or IC90 of liposomal curcumin, 72 hours
Experimental: Apoptosis assay was performed using either pancreatic BxPC-3 or HS766-T cells. […] After incubation for 72 hours, the cells were assayed using Annexin-V/Proopidium iodide staining (FACS analysis) to determine how much apoptosis had occurred.

[8] = animal studies to date; cited from earlier work
[9] = cited from earlier work

COc1cc(C=CC(=O)CC(=O)C=Cc2ccc(O)c(OC)c2)ccc1O [free curcumin, (E,E)-1,7-bis(4-hydroxy-3-methoxyphenyl)-1,6-heptadiene-3,5,-dione]
IC50 [1]: 4 µg/mL and 10.8 µM | IC90 [1]: 10 µg/mL and 27 µM | IC50 ([2]; read-out: 50% inhibitory concentration (IC50), BxPC-3 cells, approximate): ~5 µM | IC50 ([2]; BXPC-3, MTT assay, 72 hours incubation, read-out: IC50): 2 µg/mL and 5.4 µM | IC90 ([2]; BXPC-3, MTT assay, 72 hours incubation, read-out: IC90): 5 µg/mL and 13.5 µM | IC90 ([2]; BxPC-3 cells, approximate, read-out: 90% inhibitory concentration (IC90)): ~14 µM | IC50 ([3]; read-out: 50% inhibitory concentration (IC50), Capan-1 cells, approximate): ~5 µM | IC50 ([3]; CAPAN-1, MTT assay, 72 hours incubation, read-out: IC50): 2 µg/mL and 5.4 µM | IC90 ([3]; CAPAN-1, MTT assay, 72 hours incubation, read-out: IC90): 5 µg/mL and 13.5 µM | IC90 ([3]; Capan-1 cells, approximate, read-out: 90% inhibitory concentration (IC90)): ~14 µM | IC50 [4]: 17 µg/mL (≈ 46.1 µM) | IC90 [4]: 35 µg/mL (≈ 95 µM) | IC50 [5]: 2.6 µg/mL and 7 µM | IC90 [5]: 8 µg/mL and 21.6 µM | pancreatic cell growth (MTT) [6]: inhibited pancreatic cell growth of all five lines tested in a concentration-dependent manner | apoptosis after treatment [7]: dose-related apoptosis | LD50 [8]: never reached an LD50 | solubility in ethanol, alkalis, ketones, acetic acid and chloroform [9]: soluble | solubility in water ([9]; water): insoluble

— patent US10004687B2 (priority 2005, dated 2018)
